Source: US8551921B2, “Method for determining the toxicity of an environmental or chemical sample” (priority 2000, dated 2013)
Where “and” joins values, the source holds several entries; their conditions need not be identical. Equal values may be shown once. Where a name gives a salt, the structure may show the parent alone. Read-outs that look alike come from different tables or passages of the source.

Legend:
[1] = system: Aeromonas hydriphila HG3 (RV 5.1); conditions: Microbial Toxic Concentration, incubation time 16 h
Protocol: (§1) • dispense 150 μl of growth medium with indicator in each well • add a concentration gradient of the chemical to be tested to rows B-H in a MARA plate (i.e. an indicator device according to the present invention) • incubate for 16 h • read absorbance values; and • analyse with software.
(§2) Microbial responses to different chemicals was estimated by kinetic measurements of their growth using the Labsystem automated IEMS reader. A computer software that could monitor incubation temperatures, reading intervals, and automatically transfer OD data to a computer was developed. A growth medium containing 0.05% peptone, 0.011% bromothymol blue (BTB), 1% sodium chloride and 0.3% glucose was added to all wells. The glucose acts as a carbon source, and during growth the microorganism will break down the glucose and produce acids, that will turn the initially blue indicator to yellow. Each microplate contains 12 columns and 8 rows, and thus in each plate, 11 lyophilized microbial strains were used (one for each column, the 12th column was used as negative control). […] In order to avoid drying out of the plates during the incubation, one drop of sterile mineral oil was added to each well. The plate was then incubated in the IEMS spectrophotometer and the absorbance value from each well was measured every second hour during 48 h.
(§3) The overall toxicity of the chemical compound can be described either as the mean of all 11 MTC values (shown in column 12), or as the minimum value for all 11 microbial strains used in the assay (marked with bold in the table).

[2] = system: JG2 (strain of marine origin); conditions: Microbial Toxic Concentration, incubation time 16 h
Protocol: as §1, §2, §3

[3] = system: Saccaromyces ceriviciae (bakers yeast); conditions: Microbial Toxic Concentration, incubation time 16 h
Protocol: as §1, §2, §3

[4] = system: β-proteobacterium A22 (Kalmar 200); assay: MARA indicator device toxic fingerprint, microorganism no. 5; conditions: Microbial Toxic Concentration, incubation time 16 h
Protocol: as §1, §2, §3

microorganism no. 7 = assay: MARA indicator device toxic fingerprint, microorganism no. 7; conditions: Microbial Toxic Concentration, incubation time 16 h
Protocol: as §1, §2, §3

E. coli MZ 480 = assay: MARA indicator device toxic fingerprint, microorganism no. 8; conditions: Microbial Toxic Concentration, incubation time 16 h
Protocol: as §1, §2, §3

[5] = system: Staphylococcus epidermidis (Karin12); assay: MARA indicator device toxic fingerprint, microorganism no. 11; conditions: Microbial Toxic Concentration, incubation time 16 h
Protocol: as §1, §2, §3

[6] = system: 11 different microbial strains; conditions: for Inhibitory concentrations by method: MARA MTCmin: MTC value of the strain showing the highest sensitivity; for Inhibitory concentrations by method: MARA MTCmean: mean MTC for the 11 microbial strains; for Toxic fingerprint: MTC value, Mean: mean of all 11 MTC values
Protocol: as §1, §2, §3
Concentrations are given in mg/ml.

Daphnia = conditions: IC50-values, established assay; cited from earlier work
E. coli = conditions: IC50-values, established assay; cited from earlier work
[7] = system: Photobacterium phosphoreum; conditions: IC50-values, established assay; cited from earlier work
[8] = system: JG1 (strain of marine origin); conditions: Microbial Toxic Concentration; incubation time 16 h
Protocol: as §1, §2, §3

[9] = system: JG4 (strain of marine origin); conditions: Microbial Toxic Concentration; incubation time 16 h
Protocol: as §1, §2, §3

ObanF = conditions: Microbial Toxic Concentration; incubation time 16 h
Protocol: as §1, §2, §3

[10] = system: JG3 (strain of marine origin); assay: MARA indicator device toxic fingerprint, microorganism no. 3; conditions: Microbial Toxic Concentration; incubation time 16 h
Protocol: as §1, §2, §3

Compound | Toxic fingerprint: MTC value for microorganism no. 6 [1] | Toxic fingerprint: MTC value for microorganism no. 2 [2] | Toxic fingerprint: MTC value for microorganism no. 10 [3] | Toxic fingerprint: MTC value for microorganism no. 5 [4] | Toxic fingerprint: MTC value for microorganism no. 7 (microorganism no. 7) | Toxic fingerprint: MTC value for microorganism no. 8 (E. coli MZ 480) | Toxic fingerprint: MTC value for microorganism no. 11 [5] | Inhibitory concentrations by method: MARA MTCmin [6] [mg/mL] | Inhibitory concentrations by method: MARA MTCmean [6] [mg/mL] | Toxic fingerprint: MTC value, Mean [6] | Inhibitory concentrations by method: Daphnia (Daphnia) [mg/mL] | Inhibitory concentrations by method: E. coli (E. coli) [mg/mL] | Inhibitory concentrations by method: Microtox [7] [mg/mL] | Toxic fingerprint: MTC value for microorganism no. 1 [8] | Toxic fingerprint: MTC value for microorganism no. 4 [9] | Toxic fingerprint: MTC value for microorganism no. 9 (ObanF) | Toxic fingerprint: MTC value for microorganism no. 3 [10] | further results
Cn1c(=O)c2c(ncn2C)n(C)c1=O [Caffeine] | 2.190 | 1.010 | 0.790 | 0.973 | 2.930 | 3.430 | 6.060 | 0.788 | 2.085 | 2.250 | 0.158 | 15.426 | 2.129 |  |  |  |  | Toxic fingerprint: MTC value for microorganism no. 6 ([1]; listed as Coffein): 1.300; Toxic fingerprint: MTC value for microorganism no. 2 ([2]; listed as Coffein): 1.080; Toxic fingerprint: MTC value for microorganism no. 10 ([3]; listed as Coffein): 0.785; Toxic fingerprint: MTC value for microorganism no. 5 ([4]; listed as Coffein): 3.550; Toxic fingerprint: MTC value for microorganism no. 7 (microorganism no. 7; listed as Coffein): 1.510; Toxic fingerprint: MTC value for microorganism no. 8 (E. coli MZ 480; listed as Coffein): 3.500; Toxic fingerprint: MTC value for microorganism no. 11 ([5]; listed as Coffein): 2.310; Toxic fingerprint: MTC value, Mean ([6]; listed as Coffein): 1.920
O=S(=O)([O-])[O-].[Li+].[Li+] [Lithium Sulphate] | 10.600 and 8.490 | 6.300 and 7.170 | 2.650 and 3.570 | 14.500 and 10.000 |  | 41.800 and 25.400 | 22.400 and 15.300 | 3.11 | 11.330 | 9.960 and 12.700 | 0.033 | 67.764 | 25.763 | 3.700 and 4.780 | 4.590 and 7.950 | 23.400 and 17.500 | 12.200 and 12.700 | 
Oc1c(Cl)c(Cl)c(Cl)c(Cl)c1Cl [Penta Chloro Phenol] | 0.003 and 0.006 | 0.001 |  | 0.007 and 0.004 | 0.005 and 0.007 | 0.005 and 0.006 | 0.001 | 0.001 | 0.005 | 0.004 and 0.005 | 0.001 | 0.010 | 0.001 | 0.006 and 0.004 | 0.009 and 0.010 | 0.004 and 0.003 |  | 
[F-].[Na+] [Sodium Fluoride] |  | 2.660 and 2.930 | 5.650 and 4.130 | 9.500 and 15.000 | 6.450 and 7.890 | 11.400 and 14.600 |  | 4.890 | 8.050 | 6.930 and 9.170 | 0.636 | 10.547 | 9.843 | 3.290 and 2.220 | 6.040 and 6.560 | 22.700 and 20.100 |  | 
COc1ccc(CCN(C)CCCC(C#N)(c2ccc(OC)c(OC)c2)C(C)C)cc1OC (centres unmarked) [Verapamil HCl] | 1.090 | 0.247 | 0.877 | 0.591 | 2.950 | 0.360 | 0.371 | 0.360 | 0.811 | 0.811 | 0.055 | 0.834 | 0.438 | 0.326 | 3.100 | 0.510 | 0.128 | 
Kinidin sulphate | 0.099 and 0.141 | 0.053 and 0.076 | 0.091 and 0.072 |  | 0.138 and 0.275 |  | 0.088 and 0.085 | 0.087 | 0.148 | 0.150 and 0.145 | 0.062 | 1.009 | 0.092 | 0.108 and 0.102 | 0.243 and 0.233 | 0.254 and 0.329 | 0.113 and 0.104 | 
